Results reported in patent publication EP4782437A1, “HETEROARYL COMPOUND, AND PREPARATION METHOD THEREFOR AND USE THEREOF IN MEDICINE” (Jiangsu Hengrui Pharmaceuticals Co., Ltd., priority 2023, dated 2025).

Assays:
[1] = test system: B cell activation in human whole blood; assay: Inhibition of B cell activation in human whole blood (CD69 expression, flow cytometry); type: cell-based; details: anti-human IgD 30 µg/ml + IL-4 5 ng/ml, 18 hours, CD69-positive CD19-positive B cells, read-out: IC50 values of inhibitory activity against B cell activation in human whole blood
Text: Test example 2: Inhibitory activity of compounds of the present disclosure against B cell activation in human whole blood • I. Experimental materials and instruments • 1. Human whole blood (internal recruitment) • 2. Goat F(ab')2 anti-human IgD-UNLB (SouthernBiotech, 2032-01) • 3. DPBS (1x) (Gibco, 14190-144) • 4. Recombinant human IL-4 (Peprotech, 200-04) • 5. Brilliant Violet 421™ anti-human CD19 antibody (Biolegend, 302234) • 6. APC anti-human CD69 antibody (Biolegend, 310910) • 7. APC mouse IgG1, κ isotype control antibody (Biolegend, 400120) • 8. eBioscience™ 10X RBC lysis buffer (multi-species) (Thermo, 004300-54) • 9. NEST 96-well deep-well plate (Wuxi NEST Biotechnology Co., Ltd., 503501) • 10. 96-well round-bottom plate (Corning, 3788) • 11. 96-well flat-bottom plate (Corning, 3599) • 12. Attune™ NxT acoustic focusing cytometer (ThermoFisher Scientific, 4.2.0) • 13. Cell incubator (Thermo, Forma steri-cycle i160) • II. Experimental procedure
B cells express the B cell receptor (BCR) complex on their surface. When B cells in human whole blood are induced to activate, they can trigger the downstream signalling pathways of the receptor and express the activation marker CD69. The expression of CD69 in activated B cells was detected by flow cytometry, and the IC50 of the compounds were calculated to evaluate the effects of the compounds on BCR activation.
The test compounds dissolved in 100% DMSO at 20 mM were diluted with 100% DMSO to a concentration of 1 mM, which represents the 200× concentration of the highest compound concentration point in the reaction system. The compounds at this concentration were then subjected to 8-point 4-fold serial dilution with 100% DMSO. The positive control wells were set with 100% DMSO, whereas the negative control wells were set with Remiburtinib at a final concentration of 5 µM. The serially diluted compounds and 100% DMSO were further diluted 10-fold in PBS to achieve the 20× concentration, followed by thorough mixing.
After thorough mixing, the whole blood sample was transferred to a loading reservoir and then dispensed into a 96-well flat-bottom plate at 80 µl per well. The compound dilution was dispensed at 5 µl per well. The 11th column of each row was designated as the negative control well, with 5 µl of 100 µM positive control drug added to each well. After thorough mixing for 5 min, the plate was incubated in a 37°C incubator for 30 min. Human IgD antibody was diluted 1.67-fold with PBS to a concentration of 300 µg/mL, and 10 µl of the diluted solution was added to each well of the culture plate (final concentration: 30 µg/ml). Human IL-4 (stock solution at 50 µg/ml) was diluted 500-fold with PBS to a concentration of 100 ng/mL, and 5 µl of the diluted solution was added to each well of the culture plate (final concentration: 5 ng/ml). After thorough mixing for 5 min, the plate was cultured in a 37°C incubator with 5% CO2 for 18 hours.
Flow cytometry detection: CD69-APC, CD19-BV421 and CD4-APC antibodies, and the isotype control antibodies for CD69-APC were removed from 4°C storage. Each antibody was added at 1 µl per well. After thorough mixing for 5 min, the plate was incubated for 30 min at 4°C (refrigerator) in the dark for staining. The 10X RBC lysis buffer was diluted in water to prepare 1X RBC lysis buffer. Aliquots of 1 ml of the lysis buffer were dispensed into each well of a 96-well deep-well plate in advance. The stained samples were transferred into the deep-well plate containing the lysis buffer for erythrocyte lysis. After completing the transfer of an entire plate, the plate was incubated in the dark for 15-20 min. Upon completion of lysis, the plate was centrifuged at 2000 rpm for 4 min. Each well was washed with 1 ml of PBS. Subsequently, the cells were resuspended in 200 µl of PBS, transferred to a 96-well plate, and washed twice more using the same procedure. The samples were resuspended in 200 µl of PBS per well and then subjected to flow cytometry detection. […]

[2] = test system: mouse RPA model; assay: Efficacy in mouse RPA model (acute urticaria induced by OVA antigen and anti-OVA IgG); type: in vivo, C57BL/6N mice; details: single dose, p.o.; for inhibition of OVA-induced skin swelling in mice: compared with the model group
Description: To evaluate the efficacy of compound 3 in a mouse RPA model.
The administration volume of the vehicle was 10 ml/kg, and that of compound 3 was 20 ml/kg. The vehicle consisted of 0.5% MC + 0.5% Tween 80 + 99% water.
Thirty-three female C57BL/6N mice weighing 18-20 g were purchased from Vital River Laboratories. Animal production license No.: SCXK (Zhe) 2024-0001; animal qualification certificate No.: 20240229Abzz0619000122. The mice were housed in an SPF-grade animal facility under a 12/12-hour light/dark cycle, with a constant temperature of 23°C ± 1°C and a relative humidity of 50-60%. Food and water were provided ad libitum.
After acclimatisation, the mice were grouped and administered as follows: Table 4. Animal grouping and dosing regimen for in vivo efficacy experiment
After acclimatisation, the mice were shaved on the back one day prior to the experiment for skin preparation. On the day of the experiment, the mice were administered the vehicle control or compound 3 via oral gavage at administration volumes of 10 ml/kg and 20 ml/kg, respectively. Two hours post-administration, the mice were anaesthetised with isoflurane, and the thickness of the dorsal skin was measured using a vernier calliper. Upon completion of the measurement, 30 µg of mouse anti-OVA IgG was intradermally injected into the dorsal skin of the mice, while an equal volume of PBS was injected into the control group. Simultaneously, 200 µl of 2 mg/ml OVA antigen was intravenously injected. After 3 hours, the thickness of the skin swelling at the modelling site was measured.
Data of relevant indicators for animals in each group were expressed as mean ± standard deviation (Mean ± SD) and statistically analysed and plotted using GraphPad software.

[3] = biological target: hERG potassium channels (Homo sapiens, UniProt Q12809); assay: in vitro
Chain of hERG potassium channels (Q12809 whole entry): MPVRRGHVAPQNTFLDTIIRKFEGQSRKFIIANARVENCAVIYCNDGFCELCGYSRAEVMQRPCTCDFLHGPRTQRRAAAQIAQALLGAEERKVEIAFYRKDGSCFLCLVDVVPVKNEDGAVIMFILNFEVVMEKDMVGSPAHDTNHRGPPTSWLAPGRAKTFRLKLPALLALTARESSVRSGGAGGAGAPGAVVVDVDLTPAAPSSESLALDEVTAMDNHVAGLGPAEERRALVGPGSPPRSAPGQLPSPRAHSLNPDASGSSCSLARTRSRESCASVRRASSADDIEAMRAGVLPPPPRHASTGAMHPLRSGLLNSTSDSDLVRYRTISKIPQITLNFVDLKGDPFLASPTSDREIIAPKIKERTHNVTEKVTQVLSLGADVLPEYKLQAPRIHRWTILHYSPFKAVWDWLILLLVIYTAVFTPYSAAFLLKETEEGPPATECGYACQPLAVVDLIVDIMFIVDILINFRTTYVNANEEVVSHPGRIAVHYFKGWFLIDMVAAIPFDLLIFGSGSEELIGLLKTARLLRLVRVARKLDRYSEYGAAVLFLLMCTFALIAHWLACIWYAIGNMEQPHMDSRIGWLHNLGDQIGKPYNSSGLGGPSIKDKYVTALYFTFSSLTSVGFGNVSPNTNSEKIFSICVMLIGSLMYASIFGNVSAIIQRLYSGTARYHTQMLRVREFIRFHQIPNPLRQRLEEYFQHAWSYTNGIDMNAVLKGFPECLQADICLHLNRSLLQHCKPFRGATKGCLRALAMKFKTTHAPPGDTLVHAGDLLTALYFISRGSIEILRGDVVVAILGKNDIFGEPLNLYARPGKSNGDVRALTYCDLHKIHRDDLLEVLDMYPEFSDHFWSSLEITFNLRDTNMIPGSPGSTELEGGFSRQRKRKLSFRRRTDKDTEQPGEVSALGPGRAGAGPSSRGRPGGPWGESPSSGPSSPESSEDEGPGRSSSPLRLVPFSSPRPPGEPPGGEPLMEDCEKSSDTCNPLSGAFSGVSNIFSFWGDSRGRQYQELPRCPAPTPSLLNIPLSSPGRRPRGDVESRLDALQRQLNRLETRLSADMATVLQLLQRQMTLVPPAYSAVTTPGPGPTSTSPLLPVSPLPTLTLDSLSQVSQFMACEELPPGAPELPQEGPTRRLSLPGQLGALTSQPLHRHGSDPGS

C=CC(=O)N(C)CCOc1c(N)ncnc1-c1cc(F)cc(NC(=O)c2cc3c(cc2F)C2(CC2)CO3)c1C [Example 3, N-(3-(6-amino-5-(2-(N-methacrylamido)ethoxy)pyrimidin-4-yl)-5-fluoro-2-methylphenyl)-5-fluoro-2H-spiro[benzofuran-3,1'-cyclopropane]-6-carboxamide]
IC50 [1]: 10 to 100 nM
inhibitory effect on skin swelling across doses ([2]; 30, 100 and 150 mpk): dose-dependent inhibitory effect
inhibition of OVA-induced skin swelling in mice ([2]; 30 mpk): no statistically significant difference
inhibition of OVA-induced skin swelling in mice ([2]; 100 mpk): significantly inhibited
inhibition of OVA-induced skin swelling in mice ([2]; 150 mpk): significantly inhibited
IC50 [3]: > 12300 nM
